Assay results published in patent US5380755A, “Alkyl and alkylbenzyl ethers of substituted hydroquinones” (The Du Pont Merck Pharmaceutical Company, priority 1992, dated 1995).

How the values were obtained:
MAO A / MAO B = experiment: in vitro inhibitory action on types A and B monoamine oxidase in rat brain tissue: A/B selectivity; format: biochemical; details: ratio MAO A / MAO B, 5-Hydroxytryptamine[14-C] 1.0 mM (MAO A), Phenethylamine[14-C] 200 mM (MAO B)
Text: The compounds of the present invention are useful in the inhibition of monoamine oxidases. […] This test measures the in vitro inhibitory action of the two types A and B monoamine oxidase in rat brain tissue. […] Finally, it is expected that the compounds of the present invention may be useful in treating neurological disorders including memory disorders, cognitive dysfunction, dementia, dementia of the Alzheimer's type, Parkinson's syndrome, depression, hyperactive syndrome, schizophrenia, and changes in temperament.

MAO B = biological target: T1, MAO B (Rattus norvegicus, UniProt P19643); experiment: in vitro inhibitory action on type B monoamine oxidase in rat brain tissue (J. Neurochem., 1983, 40, 1534); format: biochemical; details: 200 mM Phenethylamine[14-C] as substrate
T1 construct: two types A and B monoamine oxidase in rat brain tissue; from tissue; host or cells: rat brain
T1 sequence (P19643 1-520): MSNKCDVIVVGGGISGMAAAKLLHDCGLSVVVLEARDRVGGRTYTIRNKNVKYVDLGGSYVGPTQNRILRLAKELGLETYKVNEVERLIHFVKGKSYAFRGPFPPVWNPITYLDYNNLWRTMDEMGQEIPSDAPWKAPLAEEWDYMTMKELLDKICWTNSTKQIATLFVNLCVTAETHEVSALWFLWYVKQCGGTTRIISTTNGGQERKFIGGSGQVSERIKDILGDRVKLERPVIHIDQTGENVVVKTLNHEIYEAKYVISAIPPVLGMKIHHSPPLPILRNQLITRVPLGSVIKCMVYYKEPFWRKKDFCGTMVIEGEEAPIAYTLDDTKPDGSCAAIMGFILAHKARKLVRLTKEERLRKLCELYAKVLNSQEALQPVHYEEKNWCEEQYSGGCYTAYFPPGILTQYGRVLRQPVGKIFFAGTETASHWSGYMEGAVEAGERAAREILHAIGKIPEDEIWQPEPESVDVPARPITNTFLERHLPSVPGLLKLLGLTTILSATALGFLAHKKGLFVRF
Text: This test measures the in vitro inhibitory action of the two types A and B monoamine oxidase in rat brain tissue.

| A/B (MAO A / MAO B) | IC50 (MAO B) [nM] | Compound |
| --- | --- | --- |
| < 300 | 3 | C#CCN(C)C(C)COc1ccc(OCc2cccc(Cl)c2)c(C(C)=O)c1 (centres unmarked) [Example 8, N-2-[3'-Acyl-4'-(m-chlorophenylmethyloxy)phenoxy]-1-methylethyl-N-methylpropargylamine] |
| > 10000 | 100 | CC(=O)c1cc(OCc2cc(C(F)(F)F)cc(C(F)(F)F)c2)ccc1OCCCC#N [Example 6, 4-{2'-Acetyl-4'-[(3,5-trifluoromethylphenyl)methyloxy]phenoxy}-butyronitrile] |
|  | 7000 | CNC(C)COc1ccc(OCc2cccc(Cl)c2)c(C(C)=O)c1 (centres unmarked) [Example 19] |
| 400 | 100 | CC(=O)c1cc(OCc2cccc(Cl)c2)ccc1OCCCO [Example 32] |
|  | > 100000 | CCC(=O)c1cc(OCc2ccc(F)cc2)ccc1OCCCC#N [Example 33] |
